Values of other authors, collected in patent US7098239B2, “Dipeptidyl peptidase inhibitors for the treatment of diabetes” (Merck & Co., Inc, priority 2001, dated 2006).

Legend:
[1] = tested on: cardiac allograft; settings: rats; survival doubled from day 7 to day 14
[2] = tested on: hematopoiesis; settings: mouse model of cyclophosphamide-induced neutropenia
[3] = target: T1, DP-IV (Homo sapiens, UniProt P27487)
T1 construct: GRF is rapidly degraded in plasma to GRF[3–44]
T1 sequence (P27487 39-766 limits assumed): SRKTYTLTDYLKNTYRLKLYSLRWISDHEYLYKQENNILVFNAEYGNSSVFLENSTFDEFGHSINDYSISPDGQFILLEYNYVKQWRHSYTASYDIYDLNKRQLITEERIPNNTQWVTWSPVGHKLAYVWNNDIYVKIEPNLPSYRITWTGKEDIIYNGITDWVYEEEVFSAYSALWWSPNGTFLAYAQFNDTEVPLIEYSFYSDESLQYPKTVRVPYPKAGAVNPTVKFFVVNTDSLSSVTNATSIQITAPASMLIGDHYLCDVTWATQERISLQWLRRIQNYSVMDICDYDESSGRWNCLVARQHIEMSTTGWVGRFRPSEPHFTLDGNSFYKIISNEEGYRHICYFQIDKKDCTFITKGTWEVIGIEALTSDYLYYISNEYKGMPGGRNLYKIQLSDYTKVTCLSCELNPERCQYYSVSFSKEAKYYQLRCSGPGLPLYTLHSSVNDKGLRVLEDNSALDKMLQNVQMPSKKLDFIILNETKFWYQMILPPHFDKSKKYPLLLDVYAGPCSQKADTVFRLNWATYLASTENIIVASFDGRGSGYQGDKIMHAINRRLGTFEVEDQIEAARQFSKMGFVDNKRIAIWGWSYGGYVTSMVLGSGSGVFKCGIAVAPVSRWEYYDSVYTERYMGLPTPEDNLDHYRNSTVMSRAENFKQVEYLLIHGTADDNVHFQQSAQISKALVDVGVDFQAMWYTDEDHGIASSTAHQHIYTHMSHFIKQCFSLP

CC(C)N1CCC(c2ccccc2)(c2ccccc2)CC1 [Prodipine, Pro-Pro-diphenyl-phosphonate]
cardiac allograft survival [1]: 14 day

CC(C)[C@H](N)C(=O)N1CCC[C@H]1B(O)O [Val-Boro-Pro]
hematopoiesis [2]: stimulates hematopoiesis

diprotin A
degradation of GRF in plasma to GRF[3-44] [3]: prevented
